# According to a melting point compilation (Tetko et al.; mined from patent text by program, amines drawn as free bases though some values may be those of a salt):
row,Compound,melting point
1,CC(C)(C)N1CN(c2ccccc2)C2=NN=CC2=C1N,174 to 176 °C
2,CC12CCC3C(CCC4CC(F)CCC43C)C1CCC2=O (configuration not stated),126 to 127 °C
3,COc1cc(Cc2cnc(N)nc2N)cc(OC(C)C(C)=O)c1OC (configuration not stated),168 °C
4,CC1(C)N=C(NC(=O)c2ccco2)N=C(NC(=O)c2ccco2)N1OCc1cccc2ccccc12,173 to 177 °C
5,CCCn1nc(C(C)C)c(C(=O)OC(C)OC(=O)OC2CCCCC2)c1Cc1ccc(-c2ccccc2-c2nnn[nH]2)cc1 (configuration not stated),79 to 83 °C
6,CC1(C)SC(c2cc(Br)c(O)c(Br)c2)NC1C(=O)O (configuration not stated),154 to 155 °C
7,O=C1C(=O)c2ccccc2C2=C1SCC1(CCN(CC3CC3)CC1)O2,161 to 164 °C
8,N=C(N)NC(=O)C[C@H]1c2cc(C(F)(F)F)ccc2C(=O)N1CC(F)(F)F,122 °C
9,COC(=O)C(=O)C12CC3CC(CC(O)(C3)C1)C2,164 to 166 °C
10,CSc1nc(C)c(CCCl)c(=O)n1C,135 to 137 °C
11,COc1ccc(Nc2cc(NC(C)C)ncn2)cc1,180 to 182 °C
12,CCCc1c(OCCCCCOc2cc(OCCCC(=O)O)ccc2CCC(=O)O)ccc2c1OCCC2=O,163 to 164 °C
13,Cc1ccc2c(c1)c(N1CCN(C(=O)c3cccs3)CC1)c(C#N)c(=O)n2CCN(C)C,110 to 117 °C
14,Clc1ccc2c(c1)C(c1ccccc1)=NCC1CNCCN21 (configuration not stated),132 to 135 °C
15,COc1cc2c(cc1C)CCN=C2C1(c2ccco2)CC1,98 to 100 °C
16,NC(=S)N1CCN(c2nc3cccccc-3n2)CC1,245 to 247 °C
17,O=C1C(=O)N2CCCc3cc([N+](=O)[O-])cc1c32,198 to 199 °C
18,CSC(CC(=O)O)c1ccc(C(F)(F)F)cc1 (configuration not stated),106 to 108 °C
19,CC(=O)c1nc(-c2ccc(Cl)nc2)[nH]c1C,239 to 240 °C
20,CCN1c2ncccc2C(=O)Nc2c(C)cc(N3CCC(OC(C)=O)C3)nc21 (configuration not stated),188 to 190 °C
21,CON(C)C(=O)CNC(=O)OC(C)(C)C,92 to 95 °C
22,O=C1OCCN1c1cccc(CCBr)c1,73 to 75 °C

row,Compound,melting point
1,CC(C)(C)NC(=S)c1nn(-c2ccc(F)cc2F)c2c1C1CCC2C1 (configuration not stated),148 to 150 °C
2,Cc1cccc(C)c1OCC(C)NCC(O)c1cc(C(N)=O)cs1 (configuration not stated),125 to 137 °C
3,CC(C)(C)OC(=O)N1CCC(COc2ccc(C=NO)cc2)CC1,140 to 142 °C
4,CNc1cc(C(F)(F)F)cc(N(CCN(C)C)C(=O)N(C)C)n1,101 to 103 °C
5,CC(=O)NC[C@H]1CN(c2ccc(N3CCC(CC#N)CC3)cc2)C(=O)O1,150 to 152 °C
6,O=C(NCc1cccnc1)c1ccc2n1Cc1ccccc1N(C(=O)c1ccc(-c3ccccc3CN3CCOCC3)cc1)C2,191 to 194 °C
7,CC1CCCCC1C(=O)Nc1ccc(-c2cnc(-c3ccc(NC(=O)c4cccnc4)cc3)[nH]2)cc1 (configuration not stated),226 to 228 °C
8,CC(C)(C)OC(=O)N1CCC(n2c(=O)n(CC(F)(F)F)c3cc(F)ccc32)CC1,172 to 173 °C
9,CCN(CC)C(=S)n1cnc(S(=O)(=O)CC2CCCC2)n1,78 °C
10,COc1cc2c(c(OC(C)=O)c1)C1CCC3(C)C(OC(=O)C(F)(F)F)CCC3C1CC2 (configuration not stated),137 to 138 °C
11,O=C1N=c2ccc(C3(c4nc5ccc(-c6ccccc6)cc5[nH]4)N=c4ccccc4=N3)cc2=NC1=O,> 280 °C
12,O=C(CN1CCN(c2ccccc2)CC1)N1CCC(C(=O)N2CCC2)(c2cccc(C(F)(F)F)c2)CC1,147 to 149 °C
13,CCCC(=O)N[C@H]1CC[C@H](CCN2CCN(c3nccc4c3OCC4)CC2)CC1,183 °C
14,CCOCc1nc2c(N)nc3ccccc3c2n1CCOCc1ccccc1,144 to 146 °C
15,COC[C@H](C)N1CCc2sc(Nc3ncc(F)cn3)nc2-c2c[nH]nc21,249 to 251 °C
16,NC(=O)N(O)Cc1cccs1,112 °C
17,CCN(CC)Cc1cccn1N(C)c1ccnc2cc(C(F)(F)F)ccc12,64 to 66 °C
18,OCc1cn(-c2ccc(SC(F)(F)F)cc2)cn1,145 to 147 °C
19,O=C1C[C@@H](NC(=O)OCc2ccccc2)C(=O)O1,126 to 127 °C
20,CCC(=O)N1CCC(NC(=O)N[C@@H]2C[C@H]2c2ccccc2)CC1 (relative stereo),155 to 158 °C
21,COc1[nH]c(C)cc1C#N,105 °C

# Now from value to compound:
row,melting point,Compound
1,250 to 251 °C,Cc1nn(C)c2c(=O)n(-c3ccc(Cl)c(Cl)c3)cnc12
2,189 to 190 °C,Cc1cccc(C(N)=O)c1SSc1c(C)cccc1C(N)=O
3,216 °C,CN(C(=O)c1cn2cc(-c3ccc(Cl)cc3)ccc2n1)C(Cc1ccc(OCc2ccccc2)cc1)C(=O)O (configuration not stated)
4,147 °C,COc1ccc(C2=NN(Cc3ccc(C(=O)NC4CCCC4)cc3)C(=O)CC2)cc1OC
5,169 to 171 °C,COc1cccc2oc(-c3ccc(C)cc3)cc(=O)c12
6,134 to 136 °C,CC(C(=O)O)c1ccc2c(c1)C(=O)Cc1ccccc1C2 (configuration not stated)
7,133 to 138 °C,COc1cc(C=O)ccc1OC(=O)NCCc1ccccc1
8,146 °C,OC(c1ccccc1)(C1CC1)C(c1ccccc1Cl)n1ccnc1 (configuration not stated)
9,262 to 268 °C,O=C(O)c1cc(F)ccc1Nc1ccnc2c(C(F)(F)F)cccc12
10,> 250 °C,CC(C)n1nc(-c2nc(-c3cn[nH]c3)c(N)nc2-c2ccccc2)ccc1=O
11,200 to 202 °C,CCCCc1cc(NCc2ccc(-c3ccccc3C#N)cc2)n2nccc2n1
12,166 to 168 °C,COc1ccc2nc(C3(OC)C=CC(=NS(=O)(=O)c4ccc(C)cc4)C=C3)sc2c1 (configuration not stated)
13,185 to 188 °C,O=C(Nc1ccc(-n2nc(C(F)(F)F)cc2C(F)(F)F)cc1)c1cccnc1
14,153 to 156 °C,NC(=O)[C@H]1CN(c2ccc(C3CCOCC3)c(F)c2)C(=O)O1
15,209 to 210 °C,Cc1cc(-c2ccncc2)n2ncc(C(=O)c3ccccc3)c2n1
16,120 to 122 °C,COc1ccc(C(=O)Cc2c(Cl)cncc2Cl)c2c1OCC2CC(=O)OCc1ccccc1 (configuration not stated)
17,128 to 130 °C,CSc1ccc(CN2C(=O)C3(COc4cc5c(cc43)OCO5)c3ccccc32)cc1 (configuration not stated)
18,144 to 147 °C,COc1ccc(Sc2cc(C(=O)O)c[nH]2)cc1
19,75 to 76 °C,CCCc1c(OCCCCCOc2ccccc2CCCCC(=O)O)ccc2c1OCCC2=O
20,109 to 112 °C,COc1ccc(C(=O)c2cccc3c2CCC3C#N)cc1 (configuration not stated)
21,160 °C,CC(NC(=O)c1ccc(-c2ccccc2)cc1)C(=O)O (configuration not stated)
22,271 to 273 °C,N=C(N)Nc1ccc(C(=O)Nc2cccc3cccnc23)cc1
23,204 to 205 °C,Cc1nc(-c2cn(Cc3ccc(C(F)(F)F)cc3)nn2)sc1C(=O)NCc1cccnc1
24,122 to 124 °C,O=C1C(=CO)C(c2ccc(Cl)cc2)c2ccc(Cl)cc21 (configuration not stated)
25,175 to 176 °C,Cc1c(Cl)sc2c1c(-c1ccccc1F)nc(=O)n2C
26,95 to 97 °C,CCOC(=O)c1ccc(C(CCc2cc(Cl)ccc2N2CCCCC2)C(N)=O)cc1 (configuration not stated)
27,138 to 140 °C,N=C(N)N(Cc1ccccc1)c1ccc2c3c(cccc13)CC2
28,197 °C,CN1CCC(OC2c3ccccc3CCn3cc(-c4ccc(N)cc4)nc32)CC1 (configuration not stated)
29,71.5 to 72.9 °C,NS(=O)(=O)c1cccc(C2CC2)c1
